Source: publication PMC8901637, “Deprogramming metabolism in pancreatic cancer with a bi-functional GPR55 inhibitor and biased β2 adrenergic agonist” (Scientific Reports, 2022)

Tests used:
[1] = biological target: T1, GPR55 (Homo sapiens, UniProt Q9Y2T6); assay: inhibition of uptake of the fluorescent GPR55 agonist T1117 in hGPR55-HEK293 cells; positive control; type: cell-based
T1 construct: 3 × HA-tagged human GPR55 stably expressed in HEK293 cells

[2] = biological target: T1, GPR55; assay: inhibition of uptake of the fluorescent GPR55 agonist T1117 in hGPR55-HEK293 cells (live-cell imaging); type: cell-based

T1 sequence (Q9Y2T6 whole entry): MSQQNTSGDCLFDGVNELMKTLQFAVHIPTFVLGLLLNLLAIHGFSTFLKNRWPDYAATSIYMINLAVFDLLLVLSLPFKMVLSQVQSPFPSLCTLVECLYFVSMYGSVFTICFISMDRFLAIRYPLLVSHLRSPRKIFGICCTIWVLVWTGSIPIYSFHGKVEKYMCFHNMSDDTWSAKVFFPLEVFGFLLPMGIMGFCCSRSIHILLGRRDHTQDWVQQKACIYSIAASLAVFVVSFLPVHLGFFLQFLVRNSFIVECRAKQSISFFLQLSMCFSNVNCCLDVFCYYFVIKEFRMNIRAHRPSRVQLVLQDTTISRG

With `COc1ccc(C[C@@H](C)NC[C@H](O)c2cc(O)cc(O)c2)c2ccccc12` [(R,R′)-MNF] as the compound, how does the “% reduction in T1117 incorporation” value [1] read?
Its value is ~ 70 % reduction in T1117 incorporation.

How did the IC50 [2] turn out when `COc1ccc(C[C@H](C)NC[C@H](O)c2cc(O)cc(O)c2)c2ccccc12` [(R,S′)-MNF, (R,S′)-4′-methoxy-1-naphthylfenoterol] was run?
Its IC50 is 1300 nM.
